Data reported in patent US20240261362A1, “Use Of Vetiver Product In Preparation Of Drug Having Anti-Inflammatory Effect And Capable Of Improving Animal Immunity” (Henan Agricultural University, priority 2023, published 2024).

Tests used:
Format in all cases: in vivo
[1] = tested on: carrageenan-induced mouse pedal swelling; test: Carrageenan-induced mouse pedal swelling; conditions: 0.5 mg/mouse/d, 7 d
Source text: (§1) Female SPF-grade Kunming mice weighing 18 g±1 g were purchased from the Beijing HFK Bio-technology Co., Ltd., with a license number SCXK (Beijing) 2019-0008. The mice were acclimated to the environment for 3 d before the experiment, and then fed with the experimental drugs. The mice were randomly divided into a blank control group, a DXM group, and high-, medium-, and low-dose groups of the water extract of vetiver (the water extract of vetiver prepared in Example 2) or high-, medium-, and low-dose groups of the Radix Astragali water extract (the Radix Astragali water extract prepared in Comparative Example 1), with 8 mice in each group. The mice in each group were administered continuously for 7 d. At 1 h after the final administration, 1% carrageenan was subcutaneously injected into the sole of the right hind limb to induce inflammation (at 0.1 mL/mouse). At 0 h, 1 h, 2 h, 3 h, and 4 h of Inflammatory treatment, the thickness of the paws of the mice was measured with a micrometer, and the swelling degree and swelling inhibition rate of the paws were calculated.

[2] = tested on: xylene-induced mouse auricle swelling; test: Xylene-induced mouse auricle swelling; conditions: 0.5 mg/mouse/d intragastric, 7 d
Source text: Female SPF-grade Kunming mice weighing 18 g±1 g were purchased from Beijing HFK Bio-technology Co., Ltd., with a license number SCXK (Beijing) 2019-0008. The mice were acclimated to the environment for 3 d before the experiment, and then fed with the experimental drugs every day at 9 a.m. The mice were randomly divided into a blank control group, a dexamethasone (DXM) group, and high-, medium-, and low-dose groups of the water extract of vetiver (the water extract of vetiver prepared in Example 2) or high-, medium-, and low-dose groups of the Radix Astragali water extract (the Radix Astragali water extract prepared in Comparative Example 1), with 8 mice in each group. The mice in each group were intragastrically administered 1 time a day for 7 consecutive days. At 1 h after the final administration, 30 μL of xylene was added to the right ear of each mouse in each group, and while the left ear was kept as a control. After 30 min of the treatment, the mice were killed by neck breaking, and round ear pieces were collected by punching at a same sites of the left and right ears with a 6 mm diameter, and the ear swelling degrees and swelling inhibition rates were calculated. The results were shown in Table 6, swelling inhibition rate (%)=(average swelling degree of blank group−average swelling degree of administration group)/average swelling degree of blank group×100%.

[3] = NO content in serum of mice (carrageenan model); conditions: 0.5 mg/mouse/d, 7 d; mice of Use Example 6
Source text: as §1
The mice in each experimental group in Use Example 6 were used as research objects. Blood was collected from eyeballs, serum was separated, stored at −20° C., and level of NO in serum was determined. […]

C[C@@H]1C[C@H]2[C@@H]3CCC4=CC(=O)C=C[C@]4(C)[C@@]3(F)[C@@H](O)C[C@]2(C)[C@@]1(O)C(=O)CO [DXM, dexamethasone]
inhibition rate of pedal swelling ([1]; 0 h): 14.323% | pedal swelling degree ([1]; 0 h after carrageenan): 0.995 ± 0.076 | inhibition rate of pedal swelling ([1]; 1 h): 29.302% | pedal swelling degree ([1]; 1 h after carrageenan): 1.090 ± 0.134 | inhibition rate of pedal swelling ([1]; 2 h): 34.994% | pedal swelling degree ([1]; 2 h after carrageenan): 1.083 ± 0.360 | inhibition rate of pedal swelling ([1]; 3 h): 25.884% | pedal swelling degree ([1]; 3 h after carrageenan): 1.328 ± 0.040 | inhibition rate of pedal swelling ([1]; 4 h): 13.173% | pedal swelling degree ([1]; 4 h after carrageenan): 1.438 ± 0.172 | Swelling degree ([2]; 30 min after xylene): 2.033 ± 0.907 mg | Swelling inhibition rate ([2]; vs blank group): 60.646% | NO content in serum [3]: 7.737 ± 0.431 µmol/mL
